From article PMC8588310, “Identification and Preliminary Structure-Activity Relationship Studies of 1,5-Dihydrobenzo[e][1,4]oxazepin-2(3H)-ones That Induce Differentiation of Acute Myeloid Leukemia Cells In Vitro” (Molecules, 2021) come the findings set out here.

Converted amounts (≈) assume the structure as drawn.

One data set has as its system HL-60 cells. The data set can be described thus: CD11b expression assay by flow cytometry in HL-60 cells. Type of data set: cell-based, human. Particulars: for Activity in the CD11b assay / EC50: HL-60 cells; for Activity in the CD11b assay: concentration-response; for EC50: Homo sapiens, HL-60, 96 h, 4-day (96 h) treatment, CD11b upregulation, read-out: EC50 [nM], %CD11b response in HL60 cells; for LipE (lipophilic efficiency): LipE = -LogEC50-cLogP, EC50 of CD11b assay in HL-60. The procedure:
Cells were treated with 1000 structurally diverse small molecules selected from a commercial library. A single point testing concentration of 10 µM was used. After 4 days, cells were stained with a CD11b antibody and analysed using flow cytometry. Compounds upregulating CD11b expression greater than 10% in at least three of the cell lines were considered as potential hits. Hit confirmation was undertaken as follows: first, the hit was re-tested at 10 µM both with the CD11b antibody and an isotype control to account for nonspecific binding. Secondly, the effect of the hit on cell proliferation and viability was evaluated through staining with DAPI to evaluate the number of dead cells, and with acridine orange to detect total cell numbers. Thirdly, the induction of differentiation caused by the compounds was confirmed through morphology assessment with Giemsa staining. Finally, the molecule was resynthesised and fully characterised to confirm structural authenticity. This fresh sample was then retested in the CD11b assay to generate a concentration-response curve. The study of proliferation and morphology was performed on a panel of six cell lines: HL-60, THP-1, OCI-AML3, KG-1, Kasumi-1 and ME-1.
Thus, structure-activity relationship studies were initiated, where the potency of the new analogues was evaluated through concentration-response testing using the CD11b assay in HL-60 cells. Lipophilic efficiency (LipE), which also accounts for lipophilicity, was also used to compare the quality of the analogues. Even though multiple parameters can influence activity in a cell-based assay, LipE is a useful guide to compare analogues.
PE mouse-anti-human-CD11b/Mac-1 (ICRF44, Cat 555388) and PE-mouse-IgG1-κ-isotype control (MOPC-21, Cat 555749) were purchased from BD Bioscience. Cells were suspended in 100 μL growth media (RPMI + 10% FBS + 1% L-glutamine) at a density of 2 × 10^4 cells/well of a V-bottom 96 well plate (Corning, Cat 3894) and grown for 96 h in the presence of compound at the required concentration. After 96 h, the plate was centrifuged, media was removed, and cells were resuspended in 50 µL of blocking buffer (IMDM, no phenol red + 10% FBS) containing 2.5 μL of either CD11b or isotype control antibody and incubated on ice in the dark for 20 min. Cells were washed twice in 200 μL of staining buffer (IMDM, no phenol red + 1% FBS) before being resuspended in 200 μL of staining buffer containing 1 μg/mL of DAPI to help identify dead cells. Flow cytometry data were collected on an Attune NxT and analysed using the Attune NxT software (Life Technologies).
In general terms: In flow cytometry, cells or beads pass a laser one at a time.

Data set [1] is described as follows: Semi-thermodynamic aqueous solubility. The format is physicochemical. Particulars: thermodynamic from solid. The protocol:
(§1) Determination of semi-thermodynamic solubility, metabolic stability in S9 fraction, Caco-2 permeability and PPB were performed by Cyprotex Ltd. (www.cyprotex.com, accessed on 22 October 2021) using their standard assays and as described on their website.

Data set [2] in a line: Metabolic stability in mouse S9 fraction. The format is in vitro ADME. Particulars: ER = Clint/species flow rate (mice: 90 mL/min/kg). The protocol:
as §1
[22] Extraction ratio (ER) is calculated as the measured intrinsic clearance over the hepatic blood flow of each species (90 mL/min/kg for mice). It has the advantage over other parameters (half-life, clearance) that it is independent of the species used

Data set [3] is described as follows: Single dose PK study in male CD-1 mice. Type of data set: in vivo, mouse. The source says:
In order to undertake a preliminary assessment of the pharmacokinetic (PK) profile of this compound class, three compounds were deemed to have sufficient intrinsic potency, solubility and in vitro metabolic stability properties to progress into a single dose in vivo PK study. […] […] […] Nonetheless, the clearance of the three compounds was high to moderate, and at this dose the in vitro EC50 was not reached.
Male CD-1 mice were used for the PK studies, with three for each treatment. […] Blood concentration was measured by LC-MS/MS over 24 h.

[4] abbreviates: aqueous (buffer or water not specified).
Where [5] appears, read: mouse, whole blood, single dose 3 mg/kg po, blood.

As usually defined, the EC50 is the concentration giving half of the maximal effect. The thermodynamic solubility is solubility found after equilibrating the solid with the medium. As for `CS(=O)(=O)Nc1cccc(-c2ccc3c(c2)NC(=O)COC3)c1` [Compound 6, N-(3-(2-Oxo-1,2,3,5-tetrahydrobenzo[e][1,4]oxazepin-8-yl)phenyl)methanesulfonamide], in the data set on HL-60 cells, the “Activity in the CD11b assay” value was “completely inactive” and the EC50 is more than 10000 nM. In data set [1] (setting [4]), this compound showed a thermodynamic solubility of more than 200 µM.
Take `CN1C(=O)COCc2ccc(-c3cccc(NS(C)(=O)=O)c3)cc21` [Compound 7, N-(3-(1-Methyl-2-oxo-1,2,3,5-tetrahydrobenzo[e][1,4]oxazepin-8-yl)phenyl)methanesulfonamide]: in the data set with HL-60 cells, the “Activity in the CD11b assay” value is “completely inactive” and the EC50 is more than 30000 nM. The “ER in mS9 (extraction ratio)” value in data set [2] came to 0.07. In addition, the thermodynamic solubility in data set [1] (setting [4]) was more than 200 µM.
In the case of `CCN1C(=O)COCc2ccc(-c3cccc(NS(C)(=O)=O)c3)cc21` [Compound 8, N-(3-(1-Ethyl-2-oxo-1,2,3,5-tetrahydrobenzo[e][1,4]oxazepin-8-yl)phenyl)methanesulfonamide], in the data set with HL-60 cells, the EC50 is 6200 nM and the “LipE (lipophilic efficiency)” value stood at 3.8. In addition, the “ER in mS9 (extraction ratio)” value in data set [2] was determined as 0.25. Also, in data set [1] (setting [4]), the thermodynamic solubility was more than 200 µM.
As to `CC(C)CN1C(=O)COCc2ccc(-c3cccc(NS(C)(=O)=O)c3)cc21` [Compound 10, N-(3-(1-Isobutyl-2-oxo-1,2,3,5-tetrahydrobenzo[e][1,4]oxazepin-8-yl)phenyl)methanesulfonamide], in the data set with HL-60 cells, the EC50 is 740 nM and the “LipE (lipophilic efficiency)” value was found to be 4.0. For the same compound, the “ER in mS9 (extraction ratio)” value in data set [2] came out at 0.51. The same compound registered a solubility (thermodynamic) in data set [1] (setting [4]) of more than 200 µM.
The matching figures for `CS(=O)(=O)Nc1cccc(-c2ccc3c(c2)N(C2CCCC2)C(=O)COC3)c1` [Compound 12, N-(3-(1-Cyclopentyl-2-oxo-1,2,3,5-tetrahydrobenzo[e][1,4]oxazepin-8-yl)phenyl)methanesulfonamide]: 650 nM, 4.0, 0.83 and 124 µM (≈ 49.7 µg/mL).
`CS(=O)(=O)Nc1cccc(-c2ccc3c(c2)N(C2COC2)C(=O)COC3)c1` [Compound 13, N-(3-(1-(Oxetan-3-yl)-2-oxo-1,2,3,5-tetrahydrobenzo[e][1,4]oxazepin-8-yl)phenyl)methanesulfonamide]: the EC50 with HL-60 cells is more than 10000 nM. For the same compound, the “ER in mS9 (extraction ratio)” value in data set [2] was determined as 0.08. In data set [1] (setting [4]), the solubility (thermodynamic) is 10 µM (≈ 3.88 µg/mL).
What is called bioavailability is dose-corrected exposure relative to a reference, in per cent. Low readings indicate little systemic uptake, high ones much systemic uptake. The half-life is the time needed for the level to fall by half in the phase considered. The term Cmax denotes the maximum level reached in the sampled fluid or tissue. By Tmax is commonly meant the time at which the peak concentration occurs. Take `CS(=O)(=O)Nc1cccc(-c2ccc3c(c2)N(c2ccccc2)C(=O)COC3)c1` [Compound 14, N-(3-(2-Oxo-1-phenyl-1,2,3,5-tetrahydrobenzo[e][1,4]oxazepin-8-yl)phenyl)methanesulfonamide]: in the data set with HL-60 cells, the EC50 turned out to be 220 nM and the “LipE (lipophilic efficiency)” value was 3.9. In data set [1] (setting [4]), the solubility (thermodynamic) is 14 µM (≈ 5.72 µg/mL). This compound also registered a bioavailability in data set [3] (mouse, whole blood, 3 mg/kg po vs 0.33 mg/kg iv) of 15%. This compound had a half-life in data set [3] (mouse, whole blood, single dose 3 mg/kg po and 0.33 mg/kg iv, blood, route of parameter not given) of 246 min. In data set [3] (setting [5]), the Cmax was found to be 44 ng/mL and the Tmax came to 1.2 h. Further, in data set [3] (mouse, whole blood, single dose 3 mg/kg po, blood, read-out: Vz/F), the Vd/F stood at 100 L/kg. This compound showed a Clobs in data set [3] (single dose 0.33 mg/kg iv, blood) of 43 mL/min/kg. Further, the Clobs/F in data set [3] (single dose 3 mg/kg po, blood) stood at 286 mL/min/kg. Also, in data set [3] (single dose iv 0.33 mg/kg and po 3 mg/kg), the “Clearance” value is given as “lowest clearance”.
In the case of `CC(C)N1C(=O)COCc2ccc(-c3ccc(NS(C)(=O)=O)cc3)cc21` [Compound 26, N-(4-(1-Isopropyl-2-oxo-1,2,3,5-tetrahydrobenzo[e][1,4]oxazepin-8-yl)phenyl)methanesulfonamide], in the data set with HL-60 cells, the EC50 was more than 30000 nM.
For `CC(C)N1C(=O)COCc2ccc(-c3cccc(S(C)(=N)=O)c3)cc21` (centres unmarked) [Compound 27, 1-Isopropyl-8-(3-(S-methylsulfonimidoyl)phenyl)-1,5-dihydrobenzo[e][1,4]oxazepin-2(3H)-one], in the data set on HL-60 cells, the “Activity in the CD11b assay” value is “removed the activity” and the EC50 is more than 30000 nM.
`COC(=O)Nc1cccc(-c2ccc3c(c2)N(C(C)C)C(=O)COC3)c1` [Compound 28, Methyl (3-(1-isopropyl-2-oxo-1,2,3,5-tetrahydrobenzo[e][1,4]oxazepin-8-yl)phenyl)carbamate]: in the data set with HL-60 cells, the “Activity in the CD11b assay” value is “equally active”, the EC50 worked out at 500 nM and the “LipE (lipophilic efficiency)” value stood at 3.7. The “ER in mS9 (extraction ratio)” value in data set [2] is 0.31. The same compound yielded a thermodynamic solubility in data set [1] (aqueous (not further specified)) of 88 µM (≈ 31.2 µg/mL).
As to `CC(C)N1C(=O)COCc2ccc(-c3cccc(N)c3)cc21` [Compound 29, 8-(3-Aminophenyl)-1-isopropyl-1,5-dihydrobenzo[e][1,4]oxazepin-2(3H)-one], in the data set with HL-60 cells, the EC50 stood at 3300 nM and the “LipE (lipophilic efficiency)” value is given as 3.5.
Regarding `CC(C)N1C(=O)COCc2ccc(-c3cccc(N(C)C)c3)cc21` [Compound 30, 8-(3-(Dimethylamino)phenyl)-1-isopropyl-1,5-dihydrobenzo[e][1,4]oxazepin-2(3H)-one], in the data set with HL-60 cells, the EC50 worked out at 12000 nM and the “LipE (lipophilic efficiency)” value is 2.4.
Regarding `COc1cccc(-c2ccc3c(c2)N(C(C)C)C(=O)COC3)c1` [Compound 31, 1-Isopropyl-8-(3-methoxyphenyl)-1,5-dihydrobenzo[e][1,4]oxazepin-2(3H)-one], in the data set on HL-60 cells, the EC50 is more than 10000 nM.
As to `CC(C)N1C(=O)COCc2ccc(-c3cccc(C(=O)O)c3)cc21` [Compound 32, 3-(1-Isopropyl-2-oxo-1,2,3,5-tetrahydrobenzo[e][1,4]oxazepin-8-yl)benzoic acid], in the data set with HL-60 cells, the EC50 was more than 30000 nM.
`CCCS(=O)(=O)Nc1cccc(-c2ccc3c(c2)N(C(C)C)C(=O)COC3)c1` [Compound 33, N-(3-(1-Isopropyl-2-oxo-1,2,3,5-tetrahydrobenzo[e][1,4]oxazepin-8-yl)phenyl)propane-1-sulfonamide]: the “Decrease in potency compared to OXS007002” value in the data set with HL-60 cells (CD11b EC50 in HL-60, vs OXS007002) is 10 fold. Besides, in the data set with HL-60 cells, the EC50 was 6800 nM and the “LipE (lipophilic efficiency)” value is reported as 2.5.
Regarding `CC(C)N1C(=O)COCc2ccc(-c3cccc(NS(=O)(=O)C(F)(F)F)c3)cc21` [Compound 34, 1,1,1-Trifluoro-N-(3-(1-isopropyl-2-oxo-1,2,3,5-tetrahydrobenzo[e][1,4]oxazepin-8-yl)phenyl)methanesulfonamide], in the data set with HL-60 cells, the EC50 was more than 10000 nM.
For the compound `COc1cc(NS(C)(=O)=O)cc(-c2ccc3c(c2)N(C(C)C)C(=O)COC3)c1` [Compound 38, N-(3-(1-Isopropyl-2-oxo-1,2,3,5-tetrahydrobenzo[e][1,4]oxazepin-8-yl)-5-methoxyphenyl)methanesulfonamide], in the data set on HL-60 cells, the EC50 is more than 30000 nM.
With `CC(C)N1C(=O)COCc2ccc(-c3cncc(NS(C)(=O)=O)c3)cc21` [Compound 39, N-(5-(1-Isopropyl-2-oxo-1,2,3,5-tetrahydrobenzo[e][1,4]oxazepin-8-yl)pyridin-3-yl)methanesulfonamide], in the data set on HL-60 cells, the “Activity in the CD11b assay” value is recorded as “abolished activity” and the EC50 is more than 30000 nM.
For `CC(C)N1C(=O)COCc2ccc(Oc3cccc(NS(C)(=O)=O)c3)cc21` [Compound 40, N-(3-((1-Isopropyl-2-oxo-1,2,3,5-tetrahydrobenzo[e][1,4]oxazepin-8-yl)oxy)phenyl)methanesulfonamide] the same measures were “abolished activity” and more than 30000 nM.
